Assay results from ChEMBL document CHEMBL1201862, “PubChem BioAssay data set” (2004).
Active and inactive are the calls of the source.

Columns and labels:
CHO-K1 = assay: (§1) Counterscreen for antagonists of the orexin 1 receptor (OX1R; HCRTR1): Homogeneous time resolved fluorescence (HTRF)-based cell-based dose response assay to identify antagonists of the parental CHO-K1 cell line. [Related pubchem assays (depositor defined):AID434989, AID435008, AID463079, AID485270, AID492963, AID492964, AID492965, AID493232, AID504699, AID504701]; type: functional; conditions: Cricetulus griseus
[1] = biological target: T1, Orexin/Hypocretin receptor type 1 (Homo sapiens, UniProt O43613); assay: Homogeneous Time Resolved Fluorescence (HTRF)-based cell-based high throughput dose response assay for antagonists of the orexin 1 receptor (OX1R; HCRTR1). [Related pubchem assays (depositor defined):AID434989, AID435008, AID463079, AID485270, AID492963, AID492964, AID492965, AID493232, AID504717, AID504718]; type: functional
[2] = as §1, with “Fluorescence-based” for “Homogeneous time resolved fluorescence (HTRF)-based”, “cell-based high throughput” for “cell-based”, “CHO” for “CHO-K1”; type: functional
Orexin receptor type 2 [3] = biological target: T2, Orexin receptor type 2 (Homo sapiens, UniProt O43614); assay: Counterscreen assay for antagonists of the orexin 1 receptor (OX1R; HCRTR1): Fluorescence-based cell-based dose response assay for antagonists of the orexin 2 receptor (OX2R; HCRTR2), run by assay provider.; type: functional
[4] = biological target: T1, Orexin/Hypocretin receptor type 1; assay: Fluorescence-based cell-based high throughput dose response assay for antagonists of the orexin 1 receptor (OX1R; HCRTR1). [Related pubchem assays (depositor defined):AID434989, AID435008, AID463079, AID485270, AID492963, AID492964, AID492965, AID493232, AID504717, AID504718]; type: functional
Orexin receptor type 2 [5] = biological target: T2, Orexin receptor type 2; assay: Counterscreen assay for antagonists of the orexin 1 receptor (OX1R; HCRTR1): Homogeneous Time Resolved Fluorescence (HTRF)-based cell-based dose response assay for antagonists of the orexin 2 receptor (OX2R; HCRTR2), run by assay provider.; type: functional
[6] = A Cell Based Secondary Assay to Explore Cytotoxicity in HepG2 Cells of Compounds that Modulate Mycobacterium tuberculosis in Media Containing Glycerol versus Media without Glycerol (2).; type: functional
cells [7] = type: functional
[8] = THP-1 cell cytotoxicity, dose response, cytotoxicity control for non-replicating M. tuberculosis project (AID 489025); type: functional
[9] = HepG2 cell cytotoxicity, dose response, cytotoxicity control for non-replicating M. tuberculosis project (AID 489018); type: functional; conditions: Mycobacterium tuberculosis
[10] = Vero cell cytotoxicity, cytotoxicity control for M. tuberculosis inhibitor project, purified and synthesized samples, set 3 (AID 504684); type: functional
[11] = tested on: Streptococcus sp. 'group A'; assay: growth inhibition of control SK(-) GAS strain, dose response, counter-screen for streptokinase expression inhibitor project, luminescence, kanamycin, BacTiterGlo, confirmation (AID 1900); type: functional, organism-based
[12] = A Cell Based Secondary Assay to Explore Cytotoxicity in THP-1 Cells of Compounds that Modulate Mycobacterium tuberculosis in Media Containing Glycerol versus Media without Glycerol (2).; type: functional
[13] = biological target: C-C chemokine receptor type 6 (Homo sapiens, UniProt P51684); assay: CCR6 receptor antagonists, dose response, cell-based, luminescent beta-arrestin readout (AID 504728); type: functional
Streptokinase A = biological target: T3, Streptokinase A (Streptococcus pyogenes serotype M1, UniProt P10520); assay: S. pyogenes streptokinase expression inhibitors, potency, dose response, plasminogen activation absorbance, OD405 (AID 1914); type: functional, Streptococcus pyogenes M1 GAS;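 also: secreted streptokinase activity via plasminogen activation per viability signal from cell pellet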
T3 sequence (P10520 whole entry): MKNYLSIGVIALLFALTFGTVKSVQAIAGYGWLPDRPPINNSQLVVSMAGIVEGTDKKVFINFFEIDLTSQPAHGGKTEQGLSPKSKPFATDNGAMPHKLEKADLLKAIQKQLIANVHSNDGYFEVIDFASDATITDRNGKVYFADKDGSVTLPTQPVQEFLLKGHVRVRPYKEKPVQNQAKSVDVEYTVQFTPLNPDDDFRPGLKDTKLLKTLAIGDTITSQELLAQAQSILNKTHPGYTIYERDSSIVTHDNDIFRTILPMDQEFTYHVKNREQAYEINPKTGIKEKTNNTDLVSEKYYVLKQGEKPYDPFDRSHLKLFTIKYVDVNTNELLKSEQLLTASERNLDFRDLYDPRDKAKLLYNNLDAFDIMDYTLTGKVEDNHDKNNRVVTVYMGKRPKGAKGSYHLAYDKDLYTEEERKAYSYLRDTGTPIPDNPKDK

Streptococcus = assay: Group A Streptococcus viability loss, dose response, counter-screen for streptokinase expression inhibitor project, luminescence, BacTiterGlo (AID 1915); type: functional, organism-based;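 also: potency for reduction of bacterial viability or growth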
[14] = microbe, parasite or virus in culture; type: functional; conditions: Mycobacterium tuberculosis
Beta-galactosidase = Beta-galactosidase (Escherichia coli, UniProt Q8VNN2); assay: beta-galactosidase enzyme inhibitors and activators, dose response, artefact control for CCR6 antagonist project, biochemical, E. coli enzyme, set 3 (AID 504712); type: functional
[15] = Vero E6 cell cytotoxicity, dose response, cytotoxicity control for non-replicating M. tuberculosis project, secondary assay (AID 492998); type: functional, VeroE6; conditions: Vero C1008
Vero [16] = assay: cells; type: functional; conditions: Chlorocebus sabaeus
Major prion protein = Major prion protein (Homo sapiens, UniProt P04156); type: functional, cell-based
Vero [17] = assay: cells; type: functional, cell-based; conditions: Chlorocebus sabaeus
cells [18] = assay: cells
Vero [19] = assay: Vero cell cytotoxicity, cytotoxicity control for flavivirus capping enzyme inhibitors (AID 588742); type: functional; conditions: Chlorocebus sabaeus
Genome polyprotein = Genome polyprotein (dengue virus type 2, UniProt P29990); assay: Dengue-2 NS5 methyltransferase inhibitors, primary screen, biochemical, confirmation dose response (AID 588689); type: functional
[20] = biological target: Bifunctional protein GlmU (Mycobacterium tuberculosis, UniProt P9WMN3); assay: Inhibitors of Mycobacterial Glucosamine-1-phosphate acetyl transferase (GlmU). Secondary screen.; design: species or system Mycobacterium tuberculosis H37Rv

## N#CCSc1nc(-c2ccccc2)nc2ccccc12
CHO-K1
  IC50: > 66.3 µM (inactive)
[1]
  IC50: 2.84 µM (active)
[2]
  IC50: > 49.8 µM (inactive)
Orexin receptor type 2 [3]
  IC50: > 88.8 µM (inactive)
[4]
  IC50: > 49.8 µM (inactive)
Orexin receptor type 2 [5]
  IC50: > 50 µM (inactive)

## Cc1nn2c(NCc3ccccn3)cc(C(C)C)nc2c1-c1ccccc1
[6]
  CC50: 0.46 µM (active)
Cells [7]
  IC50: 1.51 µM (active)
[8]
  CC50: 9.09 µM (active)
[9]
  CC50: 6.6 µM (active)
[10]
  CC50: 11.1 µM (active)
[11]
  EC50: 5.57 µM (active)
[12]
  CC50: 4.39 µM (active)
[13]
  IC50: > 66.6 µM (inactive)
Streptokinase A
  EC50: 6.95 µM (active)
Streptococcus
  EC50: 23.2 µM (active)
[14]
  CC50: 24.5 µM (active)
Beta-galactosidase
  IC50: > 66.6 µM (inactive)
[15]
  CC50: 15.8 µM (active)

## O=c1oc2ccccc2c(O)c1[C@H]1c2ccc(O)cc2Oc2c1c(=O)oc1ccccc21
Vero [16]
  CC50: > 25 µM (active)
Major prion protein
  IC50: 9.01 µM (active)
Vero [17]
  IC50: > 25 µM (active)
Cells [18]
  IC50: 124 µM (inactive)
Vero [19]
  CC50: > 40 µM (active)
Genome polyprotein
  IC50: 80.7 µM (active)
[20]
  IC50: 117 µM (active)
